Measured values: patent US20250145642A1, “BICYCLIC HETEROARENES AND METHODS OF THEIR USE” (Kineta, Inc., priority 2021, published 2025)
Counter-ions that a name gives are not always drawn.

Biological target: full-length human PIKFYVE (N-terminal GST-fusion) (Homo sapiens (Human), UniProt Q9Y2I7, L932S/Q1183K/Q995L/S1033A/S696N/T998S)
Assay: PIKfyve biochemical assay (ADP-Glo Kinase assay, Carna Biosciences)
Conditions: ADP-Glo, full-length human GST-PIKFYVE, 10 μM to 3 nM; read-out: hPIKfyve IC50
Outline: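 Baculovirus-expressed, glutathione-purified GST-tagged full-length human PIKFYVE (S696N/L932S/Q995L/T998S/S1033A/Q1183K) reacted with substrate and ATP in 50 mM MOPS, 1 mM DTT, pH 7.2, 1 h at room temperature. ADP formed read by ADP-Glo luminescence.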

Chain of full-length human PIKFYVE (N-terminal GST-fusion) (Q9Y2I7 whole entry S696N/L932S/Q995L/T998S/S1033A/Q1183K, the tested form may be a part): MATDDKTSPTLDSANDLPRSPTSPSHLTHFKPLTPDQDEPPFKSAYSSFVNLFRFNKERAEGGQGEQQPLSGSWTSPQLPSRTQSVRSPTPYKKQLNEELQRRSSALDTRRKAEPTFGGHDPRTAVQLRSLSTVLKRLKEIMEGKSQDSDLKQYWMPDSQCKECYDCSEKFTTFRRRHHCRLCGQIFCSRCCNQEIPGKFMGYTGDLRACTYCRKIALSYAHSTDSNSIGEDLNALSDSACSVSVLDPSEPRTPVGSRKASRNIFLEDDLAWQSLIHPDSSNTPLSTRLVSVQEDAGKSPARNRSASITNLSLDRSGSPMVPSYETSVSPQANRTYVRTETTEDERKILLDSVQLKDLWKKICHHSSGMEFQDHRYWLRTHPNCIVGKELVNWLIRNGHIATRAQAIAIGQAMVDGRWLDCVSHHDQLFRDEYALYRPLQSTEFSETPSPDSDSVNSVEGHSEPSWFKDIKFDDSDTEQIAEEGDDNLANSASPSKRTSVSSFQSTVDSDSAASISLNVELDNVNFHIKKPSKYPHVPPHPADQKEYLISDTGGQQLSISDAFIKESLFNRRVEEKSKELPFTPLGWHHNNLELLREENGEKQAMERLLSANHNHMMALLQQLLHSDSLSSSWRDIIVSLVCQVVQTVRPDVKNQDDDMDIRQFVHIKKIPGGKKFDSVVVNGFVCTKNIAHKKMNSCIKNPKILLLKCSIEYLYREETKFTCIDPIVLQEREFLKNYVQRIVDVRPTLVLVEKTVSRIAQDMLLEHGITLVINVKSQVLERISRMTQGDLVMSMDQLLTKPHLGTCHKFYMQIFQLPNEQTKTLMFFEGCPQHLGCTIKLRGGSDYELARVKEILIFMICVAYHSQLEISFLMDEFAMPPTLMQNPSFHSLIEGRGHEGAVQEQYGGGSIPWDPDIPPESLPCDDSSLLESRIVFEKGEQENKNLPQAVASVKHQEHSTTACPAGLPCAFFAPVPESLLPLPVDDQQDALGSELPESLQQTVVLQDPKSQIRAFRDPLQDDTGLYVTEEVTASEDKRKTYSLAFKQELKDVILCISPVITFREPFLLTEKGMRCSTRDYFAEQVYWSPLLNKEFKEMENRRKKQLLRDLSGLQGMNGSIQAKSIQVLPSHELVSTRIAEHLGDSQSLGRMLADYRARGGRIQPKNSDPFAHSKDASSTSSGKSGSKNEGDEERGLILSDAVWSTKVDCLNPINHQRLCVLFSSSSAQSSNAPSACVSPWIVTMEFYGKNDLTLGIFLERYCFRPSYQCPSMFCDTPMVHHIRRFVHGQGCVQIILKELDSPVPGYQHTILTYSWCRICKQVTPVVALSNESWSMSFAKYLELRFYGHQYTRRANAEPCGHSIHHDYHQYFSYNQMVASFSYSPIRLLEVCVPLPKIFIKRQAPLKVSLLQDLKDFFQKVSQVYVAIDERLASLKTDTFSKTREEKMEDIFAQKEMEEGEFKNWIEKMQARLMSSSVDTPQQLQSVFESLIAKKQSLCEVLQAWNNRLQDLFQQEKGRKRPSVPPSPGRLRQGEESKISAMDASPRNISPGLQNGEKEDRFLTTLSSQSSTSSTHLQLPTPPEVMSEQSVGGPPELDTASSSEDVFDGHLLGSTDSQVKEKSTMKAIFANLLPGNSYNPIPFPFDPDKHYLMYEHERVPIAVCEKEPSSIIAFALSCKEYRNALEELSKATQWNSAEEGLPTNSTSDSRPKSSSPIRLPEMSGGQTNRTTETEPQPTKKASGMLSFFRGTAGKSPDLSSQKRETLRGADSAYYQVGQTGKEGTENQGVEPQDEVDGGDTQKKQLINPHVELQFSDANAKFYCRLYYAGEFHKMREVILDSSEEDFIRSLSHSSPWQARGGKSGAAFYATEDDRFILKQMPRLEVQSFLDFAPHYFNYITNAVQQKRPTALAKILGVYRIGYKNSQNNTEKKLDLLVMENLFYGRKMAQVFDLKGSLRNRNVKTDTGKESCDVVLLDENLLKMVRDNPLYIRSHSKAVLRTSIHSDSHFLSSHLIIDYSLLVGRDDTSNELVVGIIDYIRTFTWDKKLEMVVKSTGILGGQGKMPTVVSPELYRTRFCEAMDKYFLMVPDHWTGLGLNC

SMILES | IC50 [nM]
c1ccc(Oc2nc(N3CCOCC3)nc3c2CCN3c2cccnc2)nc1 [Compound 51, 4-(4-(pyridin-2-yloxy)-7-(pyridin-3-yl)-6,7-dihydro-5H-pyrrolo[2,3-d]pyrimidin-2-yl)morpholine] | 100 to 1000
c1ccc(N2CCc3c(OC4CCOC4)nc(N4CCOCC4)nc32)cc1 (stereo not drawn) [Compound 22, 4-(7-phenyl-4-((tetrahydrofuran-3-yl)oxy)-6,7-dihydro-5H-pyrrolo[2,3-d]pyrimidin-2-yl)morpholine] | 100 to 1000
c1ccc(Oc2nc(N3CCOCC3)nc3c2CCN3c2cccnc2)nc1 [Compound 58] | 100 to 1000
COc1cccc(-c2c[nH]c3c(-c4ccncc4)nc(N4CCOCC4)nc23)n1 [Compound 139, 4-(7-(6-methoxypyridin-2-yl)-4-(pyridin-4-yl)-5H-pyrrolo[3,2-d]pyrimidin-2-yl)morpholine] | 10 to 100
c1ccc(N2CCc3c(OCC4CCCO4)nc(N4CCOCC4)nc32)cc1 (stereo not drawn) [Compound 29, 4-(7-phenyl-4-((tetrahydrofuran-2-yl)methoxy)-6,7-dihydro-5H-pyrrolo[2,3-d]pyrimidin-2-yl)morpholine] | 100 to 1000
c1ccc(-n2cnc3c(-c4ccncc4)nc(N4CCOCC4)nc32)cc1 [Compound 128, 4-(9-phenyl-6-(pyridin-4-yl)-9H-purin-2-yl)morpholine] | 10 to 100
c1ccc(N2CCc3c(Nc4cccnc4)nc(N4CCOCC4)nc32)cc1 [Compound 77] | 10 to 100
Fc1cccc(N2CCc3c(-c4ccoc4)nc(N4CCOCC4)nc32)c1 [Compound 93, 4-(7-(3-fluorophenyl)-4-(furan-3-yl)-6,7-dihydro-5H-pyrrolo[2,3-d]pyrimidin-2-yl)morpholine] | 10 to 100
c1ccc(-c2nccc(-c3nc(N4CCOCC4)nc4c3CCN4c3cccnc3)n2)cc1 [Compound 124, 4-(4-(2-phenylpyrimidin-4-yl)-7-(pyridin-3-yl)-6,7-dihydro-5H-pyrrolo[2,3-d]pyrimidin-2-yl)morpholine hydrochloride] | 10 to 100
CN1CCC(c2nc(N3CCOCC3)nc3c2CCN3c2cccnc2)CC1 [Compound 109, 4-(4-(1-methylpiperidin-4-yl)-7-(pyridin-3-yl)-6,7-dihydro-5H-pyrrolo[2,3-d]pyrimidin-2-yl)morpholine] | 1000 to 10000
Cc1cccc(N2C(=O)Cc3c(OCc4cccnc4)nc(N4CCOCC4)nc32)c1 [Compound 129, 2-morpholino-4-(pyridin-3-ylmethoxy)-7-m-tolyl-5H-pyrrolo[2,3-d]pyrimidin-6(7H)-one] | 100 to 1000
CC(C)(O)COc1nc(N2CCOCC2)nc2c1CCN2c1cccnc1 [Compound 19, 2-methyl-1-(2-morpholino-7-(pyridin-3-yl)-6,7-dihydro-5H-pyrrolo[2,3-d]pyrimidin-4-yloxy)propan-2-ol] | 100 to 1000
CN1CCC(COc2nc(N3CCOCC3)nc3c2CCN3c2cccnc2)C1 (stereo not drawn) [Compound 35, 4-(4-((1-methylpyrrolidin-3-yl)methoxy)-7-(pyridin-3-yl)-6,7-dihydro-6H-pyrrolo[2,3-d]pyrimidin-2-yl)morpholine] | 100 to 1000
c1cncc(N2CCc3c(C4CCNCC4)nc(N4CCOCC4)nc32)c1 [Compound 108, 4-(4-(piperidin-4-yl)-7-(pyridin-3-yl)-6,7-dihydro-5H-pyrrolo[2,3-d]pyrimidin-2-yl)morpholine] | 1000 to 10000
COc1cccc(C2CC2c2nc(N3CCOCC3)nc3c2CCN3c2cccnc2)c1 (stereo not drawn) [Compound 122, 4-(4-(2-(3-methoxyphenyl)cyclopropyl)-7-(pyridin-3-yl)-6,7-dihydro-5H-pyrrolo[2,3-d]pyrimidin-2-yl)morpholine] | 100 to 1000
CN1CCCC(COc2nc(N3CCOCC3)nc3c2CCN3c2ccnnc2)C1 (stereo not drawn) [Compound 17, 4-(4-((1-methylpiperidin-3-yl)methoxy)-7-(pyridazin-4-yl)-6,7-dihydro-5H-pyrrolo[2,3-d]pyrimidin-2-yl)morpholine] | 100 to 1000
O=C(Cc1ccccc1)N1CCc2c(-c3ccncc3)nc(N3CCOCC3)nc21 [Compound 73, 1-(2-morpholino-4-(pyridin-4-yl)-5,6-dihydro-7H-pyrrolo[2,3-d]pyrimidin-7-yl)-2-phenylethan-1-one] | 10 to 100
c1cncc(-c2nc(N3CCOCC3)nc3c2CCN3c2cccnc2)c1 [Compound 106, 4-(4,7-di(pyridin-3-yl)-6,7-dihydro-5H-pyrrolo[2,3-d]pyrimidin-2-yl)morpholine] | 10 to 100
Cc1nc(N2CCOCC2)nc2c1CCN2c1ccccc1 [Compound 45, 4-(4-methyl-7-phenyl-6,7-dihydro-5H-pyrrolo[2,3-d]pyrimidin-2-yl)morpholine] | 100 to 1000
c1ccc(N2CCc3c(N4CCOCC4)nc(N4CCOCC4)nc32)cc1 [Compound 78, 4,4′-(7-phenyl-6,7-dihydro-5H-pyrrolo[2,3-d]pyrimidine-2,4-diyl)dimorpholine] | 10 to 100

SMILES | IC50 [nM]
Fc1cccc(N2CCc3c(C4CCOC4)nc(N4CCOCC4)nc32)c1 (stereo not drawn) [Compound 94, 4-(7-(3-fluorophenyl)-4-(tetrahydro-furan-3-yl)-6,7-dihydro-5H-pyrrolo[2,3-d]pyrimidin-2-yl)morpholine] | 100 to 1000
c1cncc(COc2nc(N3CCOCC3)nc3c2CCN3C2CCNCC2)c1 [Compound 6, 4-(7-(piperidin-4-yl)-4-(pyridin-3-ylmethoxy)-6,7-dihydro-5H-pyrrolo[2,3-d]pyrimidin-2-yl)morpholine] | > 10000
c1cncc(N2CCc3c(OCC4CCNC4)nc(N4CCOCC4)nc32)c1 (stereo not drawn) [Compound 34, 4-(7-(pyridin-3-yl)-4-(pyrrolidin-3-ylmethoxy)-6,7-dihydro-5H-pyrrolo[2,3-d]pyrimidin-2-yl)morpholine] | 100 to 1000
c1ccc(-n2ncc3c(N4CCOCC4)nc(OCc4cccnc4)nc32)cc1 [Compound 131, 4-(1-phenyl-6-(pyridin-3-ylmethoxy)-1H-pyrazolo[3,4-d]pyrimidin-4-yl)morpholine] | 1000 to 10000
c1cncc(N2CCc3c(COC4CCNC4)nc(N4CCOCC4)nc32)c1 (stereo not drawn) [Compound 64, 4-(7-(pyridin-3-yl)-4-((pyrrolidin-3-yloxy)methyl)-6,7-dihydro-5H-pyrrolo[2,3-d]pyrimidin-2-yl)morpholine] | 1000 to 10000
c1cncc(Oc2nc(N3CCOCC3)nc3c2CCN3c2cccnc2)c1 [Compound 55, 4-(7-(pyridin-3-yl)-4-(pyridin-3-yloxy)-6,7-dihydro-5H-pyrrolo[2,3-d]pyrimidin-2-yl)morpholine] | 100 to 1000
c1cncc(N2CCc3c(-c4ccncc4)nc(N4CCOCC4)nc32)c1 [Compound 105, 4-(7-(pyridin-3-yl)-4-(pyridin-4-yl)-6,7-dihydro-5H-pyrrolo[2,3-d]pyrimidin-2-yl)morpholine] | 10 to 100
Cn1nccc1-c1c[nH]c2c(-c3ccncc3)nc(N3CCOCC3)nc12 [Compound 141, 4-(7-(1-methyl-1H-pyrazol-5-yl)-4-(pyridin-4-yl)-5H-pyrrolo[3,2-d]pyrimidin-2-yl)morpholine] | 10 to 100
c1ccc(N2CCc3c(NC4COC4)nc(N4CCOCC4)nc32)cc1 [Compound 76, 2-morpholino-N-(oxetan-3-yl)-7-phenyl-6,7-dihydro-5H-pyrrolo[2,3-d]pyrimidin-4-amine] | > 10000
c1ccc(N2CCc3c(OCc4cncnc4)nc(N4CCOCC4)nc32)cc1 [Compound 14, 4-(7-phenyl-4-(pyrimidin-5-ylmethoxy)-6,7-dihydro-5H-pyrrolo[2,3-d]pyrimidin-2-yl)morpholine] | 10 to 100
CN1CCn2ncc(-c3c[nH]c4c(-c5ccncc5)nc(N5CCOCC5)nc34)c2C1 [Compound 146, 4-(7-(5-methyl-4,5,6,7-tetrahydropyrazolo[1,5-a]pyrazin-3-yl)-4-(pyridin-4-yl)-5H-pyrrolo[3,2-d]pyrimidin-2-yl)morpholine] | 100 to 1000
CC(C)(O)Cc1nc(N2CCOCC2)nc2c1CCN2c1ccccc1 [Compound 46, 2-methyl-1-(2-morpholino-7-phenyl-6,7-dihydro-5H-pyrrolo[2,3-d]pyrimidin-4-yl)propan-2-ol] | 10 to 100
CC(C)(C)OC(=O)N1CCC(N2CCc3c(OCc4cccnc4)nc(N4CCOCC4)nc32)CC1 [Compound 5, tert-butyl 4-(2-morpholino-4-(pyridin-3-ylmethoxy)-5H-pyrrolo[2,3-d]pyrimidin-7(6H)-yl)piperidine-1-carboxylate] | > 10000
c1ccc(N2CCc3c(COC4CCOCC4)nc(N4CCOCC4)nc32)cc1 [Compound 61, 4-(7-phenyl-4-(((tetrahydro-2H-pyran-4-yl)oxy)methyl)-6,7-dihydro-5H-pyrrolo[2,3-d]pyrimidin-2-yl)morpholine] | 100 to 1000
Fc1cccc(N2CCc3c(OCc4cccnn4)nc(N4CCOCC4)nc32)c1 [Compound 8, 4-(7-(3-fluorophenyl)-4-(pyridazin-3-ylmethoxy)-6,7-dihydro-5H-pyrrolo[2,3-d]pyrimidin-2-yl)morpholine] | 100 to 1000
N#Cc1nc(N2CCOCC2)nc2c1CCN2c1ccccc1 [Compound 47, 2-morpholino-7-phenyl-6,7-dihydro-5H-pyrrolo[2,3-d]pyrimidine-4-carbonitrile] | 100 to 1000
c1ccc(N2CCc3c(OCc4cccnn4)nc(N4CCOCC4)nc32)cc1 [Compound 27, 4-(7-phenyl-4-(pyridazin-3-ylmethoxy)-6,7-dihydro-5H-pyrrolo[2,3-d]pyrimidin-2-yl)morpholine] | 10 to 100
c1cc(-c2nc(N3CCOCC3)nc3c(-c4cnn(C5CC5)c4)c[nH]c23)ccn1 [Compound 140, 4-(7-(1-cyclopropyl-1H-pyrazol-4-yl)-4-(pyridin-4-yl)-5H-pyrrolo[3,2-d]pyrimidin-2-yl)morpholine] | 10 to 100
c1cncc(COc2nc(N3CCOCC3)nc3c2CCN3c2cccnc2)c1 [Compound 32, 4-(7-(pyridin-3-yl)-4-(pyridin-3-ylmethoxy)-6,7-dihydro-5H-pyrrolo[2,3-d]pyrimidin-2-yl)morpholine] | 100 to 1000
